In patent US11548913B2, “Therapeutic compositions including peptides and uses thereof” (Stealth BioTherapeutics Inc., priority 2015, dated 2023):
Entries after “also recorded” stand apart in the source; their conditions may differ. Square brackets hold non-standard residues; d marks the D form. Peptide text beside a SMILES is read from it. Dmt = Cc1cc(O)cc(C)c1C[C@H](N)C(=O)O; dOrn = NCCC[C@@H](N)C(=O)O

Columns and labels:
[1] = tested on: Excised Sprague-Dawley rat hearts; test: Modified Langendorff rat heart model, ischemia/reperfusion with peptide in the reperfusion buffer (Example 1); details: 1 μM peptide in Krebs buffer during 2 hours reperfusion after 20 min global no-flow ischemia; compared to controls
Experimental: (§1) The Langendorff rodent heart model is widely employed in studies of myocardial function and responses to injury (e.g., ischemia). For whole-heart studies, male Sprague-Dawley rats (7-9 weeks old) were injected with pentobarbital (35 mg/kg, ip injection) and hearts were excised with midline thoracotomy. The aortas were secured around a cannula of a modified Langendorff apparatus and retrogradely perfused (perfusion pressure of 75 mm Hg) with a modified Krebs-Henseleit buffer containing (in mM): 118 NaCl, 24 NaHCO3, 4.75 KCl, 1.2 KH2PO4, 1.2 MgSO4, 2.0 CaCl2, and 10 glucose (gassed with 95/5% O2/CO2). Hearts were bathed in a buffer-filled perfusion chamber maintained at 37° C. for the duration of the experiments. Following the initiation of perfusion, hearts were instrumented for the simultaneous observation of mechanical and electrical function. A buffer-filled latex balloon (size 5, Harvard Apparatus, Holliston, Mass., USA), calibrated at the beginning of each day using a digital manometer, was inserted into the left ventricle (via the mitral valve) for the measurement of left ventricular developed pressure (LVDP), with balloon volume adjusted to establish a diastolic pressure of 5-8 mm Hg. Three electrodes were placed into the buffer filled perfusion chamber for the measurement of the volume-conducted electrocardiogram (ECG). Coronary flow rates were monitored constantly with a flow probe (Transconic Systems, Ithaca, N.Y., USA) connected in series with the perfusion line, and normalized to heart wet weight (in grams) at the end of each experiment. All physiological parameters were continuously monitored and stored on a personal computer using commercially available software (Chart, AD Instruments, Colorado Springs, Colo., USA). Heart rate was calculated using the LVDP trace, and maximal rates of contraction(+dP/dt) and relaxation (−dP/dt) were calculated using the derivative of the LVDP trace.
Following a 10 minute baseline period, ischemia/reperfusion was initiated. Hearts were exposed to global no-flow ischemia by stopping perfusion for 20 min. At the end of the index ischemia, static buffer from the perfusion lines was washed out (via an accessory port proximal to the aortic cannula), and reperfusion ensued for 2 hours either with Krebs buffer alone (control) or Krebs buffer containing an experimental peptide at a concentration of 1 μM. Peptides tested included D-Arg-D-Dmt-D-Lys-L-Phe-NH2 (SBT-46), D-Arg-L-DMT-L-Ala-L-Phe-NH2 (SBT-68), (Ac)-D-Arg-L-DMT-L-Lys-L-Phe-NH2 (SBT-85), D-Arg-L-Dmt-L-His-L-Phe-NH2(SBT-100), D-Arg-L-DMT-L-Orn-L-Phe-NH2 (SBT-102), D-Orn-L-DMT-L-Lys-L-Phe-NH2(SBT-131), D-(Amidine)Arg(propylamine)-L-DMT-L-Lys-L-Phe-NH2 (SBT-140), and D-Arg(butylamidine analog)-L-DMT-L-Lys-L-Phe-NH2(SBT-149). At the end of reperfusion, the left ventricle was dissected, sliced into 5 mm-thick slices, incubated in 1% triphenyltetrazolium chloride (TTC) for 10 min (37° C.) and digitally photographed for subsequent infarct size analysis. Infarct size was expressed as a percentage of the left ventricle (% area at risk (AAR))(calculated using ImageJ software, NIH, Bethesda, Md., USA).

[2] = tested on: excised rat hearts; test: Modified Langendorff rat heart model, peptide pre-treatment before ischemia/reperfusion (Example 2); details: hearts bathed 2 hours in 1 μM peptide before 20 min ischemia and 2 hours reperfusion; vs SBT-46, SBT-102 and controls; anticipated
Experimental: as §1, with “are” for “were”, “USA), which is” for “USA),”, “is” for “was”
Prior to the initiation of ischemia/reperfusion, the excised rat hearts are bathed in buffer containing an experimental peptide at a concentration of 1 μM or buffer alone (control) for two hours. The experimental peptide is selected from D-Arg-D-Dmt-D-Lys-L-Phe-NH2 (SBT-46), D-Arg-L-DMT-L-Ala-L-Phe-NH2 (SBT-68), (Ac)-D-Arg-L-DMT-L-Lys-L-Phe-NH2 (SBT-85), D-Arg-L-Dmt-L-His-L-Phe-NH2(SBT-100), D-Arg-L-DMT-L-Orn-L-Phe-NH2 (SBT-102), D-Orn-L-DMT-L-Lys-L-Phe-NH2(SBT-131), D-(Amidine)Arg(propylamine)-L-DMT-L-Lys-L-Phe-NH2(SBT-140), and D-Arg(butylamidine analog)-L-DMT-L-Lys-L-Phe-NH2 (SBT-149). Following a 10 minute baseline period, ischemia/reperfusion is initiated. Hearts are exposed to global no-flow ischemia by stopping perfusion for 20 min. At the end of the index ischemia, static buffer from the perfusion lines is washed out (via an accessory port proximal to the aortic cannula), and reperfusion ensues for 2 hours with Krebs buffer. At the end of reperfusion, the left ventricle is dissected, sliced into 5 mm-thick slices, incubated in 1% triphenyltetrazolium chloride (TTC) for 10 min (37° C.) and digitally photographed for subsequent infarct size analysis. Infarct size is expressed as a percentage of the left ventricle (% area at risk (AAR))(calculated using ImageJ software, NIH, Bethesda, Md., USA).

| Compound | attenuation of cardiac ischemia injury and ischemia-reperfusion injury [1] | infarct size expressed as a percentage of area at risk (AAR) [1] | left ventricular developed pressure (LVDP) [1] | maximal rates of contraction (+dP/dt) [1] | maximal rates of relaxation (−dP/dt) [1] | LVDP [2] | infarct size [2] | maximal rates of contraction (+dP/dt) [2] | maximal rates of relaxation (−dP/dt) [2] |
| --- | --- | --- | --- | --- | --- | --- | --- | --- | --- |
| Cc1cc(O)cc(C)c1C[C@H](NC(=O)[C@H](N)CCCNC(=N)N)C(=O)N[C@@H](C)C(=O)N[C@@H](Cc1ccccc1)C(N)=O [SBT-68, D-Arg-L-DMT-L-Ala-L-Phe-NH2] (H-[dR][Dmt]AF-NH2) | able to attenuate cardiac ischemia injury and ischemia-reperfusion injury; also recorded: attenuation of cardiac ischemia-reperfusion injury | reduced infarct size | increased LVDP | increased maximal rates of contraction | increased maximal rates of relaxation | increased LVDP | reduced infarct size | increased maximal rates of contraction | increased maximal rates of relaxation |
| CC(=O)N[C@H](CCCNC(=N)N)C(=O)N[C@@H](Cc1c(C)cc(O)cc1C)C(=O)N[C@@H](CCCCN)C(=O)N[C@@H](Cc1ccccc1)C(N)=O [SBT-85, (Ac)-D-Arg-L-DMT-L-Lys-L-Phe-NH2] (Ac-[dR][Dmt]KF-NH2) | able to attenuate cardiac ischemia injury and ischemia-reperfusion injury; also recorded: attenuation of cardiac ischemia-reperfusion injury | reduced infarct size | increased LVDP | increased maximal rates of contraction | increased maximal rates of relaxation | increased LVDP | reduced infarct size | increased maximal rates of contraction | increased maximal rates of relaxation |
| Cc1cc(O)cc(C)c1C[C@H](NC(=O)[C@H](N)CCCNC(=N)N)C(=O)N[C@@H](Cc1cnc[nH]1)C(=O)N[C@@H](Cc1ccccc1)C(N)=O [SBT-100, D-Arg-L-Dmt-L-His-L-Phe-NH2] (H-[dR][Dmt]HF-NH2) | able to attenuate cardiac ischemia injury and ischemia-reperfusion injury; also recorded: attenuation of cardiac ischemia-reperfusion injury | reduced infarct size | increased LVDP | increased maximal rates of contraction | increased maximal rates of relaxation | increased LVDP | reduced infarct size | increased maximal rates of contraction | increased maximal rates of relaxation |
| Cc1cc(O)cc(C)c1C[C@H](NC(=O)[C@H](N)CCCN)C(=O)N[C@@H](CCCCN)C(=O)N[C@@H](Cc1ccccc1)C(N)=O [SBT-131, D-Orn-L-DMT-L-Lys-L-Phe-NH2] (H-[dOrn][Dmt]KF-NH2) | able to attenuate cardiac ischemia injury and ischemia-reperfusion injury; also recorded: attenuation of cardiac ischemia-reperfusion injury | reduced infarct size | increased LVDP | increased maximal rates of contraction | increased maximal rates of relaxation | increased LVDP | reduced infarct size | increased maximal rates of contraction | increased maximal rates of relaxation |
| Cc1cc(O)cc(C)c1C[C@H](NC(=O)[C@@H](CCCN)NC(=N)N)C(=O)N[C@@H](CCCCN)C(=O)N[C@@H](Cc1ccccc1)C(N)=O [SBT-140, D-(Amidine)Arg(propylamine)-L-DMT-L-Lys-L-Phe-NH2] | able to attenuate cardiac ischemia injury and ischemia-reperfusion injury; also recorded: attenuation of cardiac ischemia-reperfusion injury | reduced infarct size | increased LVDP | increased maximal rates of contraction | increased maximal rates of relaxation | increased LVDP | reduced infarct size | increased maximal rates of contraction | increased maximal rates of relaxation |
| D-Arg-D-Dmt-D-Lys-L-Phe-NH2 [SBT-46] | does not attenuate cardiac ischemia-reperfusion injury | did not reduce infarct size | did not reduce infarct size, increase LVDP | did not reduce infarct size, increase LVDP, or increase the maximal rates of contraction and relaxation | did not reduce infarct size, increase LVDP, or increase the maximal rates of contraction and relaxation |  |  |  |  |
| D-Arg-L-Dmt-L-Orn-L-Phe-NH2 [SBT-102] | does not attenuate cardiac ischemia-reperfusion injury | did not reduce infarct size | did not reduce infarct size, increase LVDP | did not reduce infarct size, increase LVDP, or increase the maximal rates of contraction and relaxation | did not reduce infarct size, increase LVDP, or increase the maximal rates of contraction and relaxation |  |  |  |  |
